Key:
[1] = system: ragweed (common ragweed, Ambrosia elatior); experiment: Test A postemergence, ragweed; format: in vivo; details: Ambrosia artemisiifolia, post-emergence, 240 h, 0 to 100 scale (0 no effect, 100 complete control), read-out: Plant response rating, Ragweed; for pest or weed control at 31 g/ha: 31 g ai/ha; for pest or weed control at 125 g/ha: 125 g ai/ha
kochia (Kochia scoparia) [2] = experiment: Test A preemergence, kochia; format: in vivo; details: Bassia scoparia, pre-emergence, 240 h, 0 to 100 scale (0 no effect, 100 complete control), read-out: Plant response rating, Kochia; for pest or weed control at 31 g/ha: 31 g ai/ha; for pest or weed control at 125 g/ha: 125 g ai/ha
[3] = system: barnyardgrass (Echinochloa crus-galli); experiment: Test B flooded paddy test, barnyardgrass; details: Echinochloa crus-galli, read-out: Plant response rating, Barnyardgrass (0 to 100 scale, 0 is no effect, 100 is complete control)
rice (Oryza sativa) = experiment: Test B flooded paddy test, rice; details: Oryza sativa, read-out: Plant response rating, Rice (0 to 100 scale, 0 is no effect, 100 is complete control)
kochia (Kochia scoparia) [4] = experiment: Test A postemergence, kochia; format: in vivo; details: Bassia scoparia, post-emergence, 240 h, 0 to 100 scale (0 no effect, 100 complete control), read-out: Plant response rating, Kochia; for pest or weed control at 31 g/ha: 31 g ai/ha; for pest or weed control at 125 g/ha: 125 g ai/ha
[5] = system: ducksalad (Heteranthera limosa); experiment: Test B flooded paddy test, ducksalad; details: Heteranthera limosa, read-out: Plant response rating, Ducksalad (0 to 100 scale, 0 is no effect, 100 is complete control)
[6] = system: galium (catchweed bedstraw, Galium aparine); experiment: Test A postemergence, galium; format: in vivo; details: Galium, post-emergence, 240 h, 0 to 100 scale (0 no effect, 100 complete control), read-out: Plant response rating, Galium; for pest or weed control at 31 g/ha: 31 g ai/ha; for pest or weed control at 125 g/ha: 125 g ai/ha
[7] = system: wheat (Triticum aestivum); experiment: Test A postemergence, wheat; format: in vivo; details: Triticum aestivum, post-emergence, 240 h, 0 to 100 scale (0 no effect, 100 complete control), read-out: Plant response rating, Wheat; for plant injury at 31 g/ha: 31 g ai/ha; for plant injury at 125 g/ha: 125 g ai/ha
[8] = system: ryegrass, Italian (Italian ryegrass, Lolium multiflorum); experiment: Test A preemergence, ryegrass, Italian; format: in vivo; details: Lolium multiflorum, pre-emergence, 240 h, 0 to 100 scale (0 no effect, 100 complete control), read-out: Plant response rating, Ryegrass, Italian; for pest or weed control at 31 g/ha: 31 g ai/ha; for pest or weed control at 125 g/ha: 125 g ai/ha
[9] = system: ragweed (common ragweed, Ambrosia elatior); experiment: Test A preemergence, ragweed; format: in vivo; details: Ambrosia artemisiifolia, pre-emergence, 240 h, 0 to 100 scale (0 no effect, 100 complete control), read-out: Plant response rating, Ragweed; for pest or weed control at 125 g/ha: 125 g ai/ha
[10] = system: blackgrass (Alopecurus myosuroides); experiment: Test A postemergence, blackgrass; format: in vivo; details: Alopecurus myosuroides, post-emergence, 240 h, 0 to 100 scale (0 no effect, 100 complete control), read-out: Plant response rating, Blackgrass; for pest or weed control at 31 g/ha: 31 g ai/ha; for pest or weed control at 125 g/ha: 125 g ai/ha
[11] = system: ryegrass, Italian (Italian ryegrass, Lolium multiflorum); experiment: Test A postemergence, ryegrass, Italian; format: in vivo; details: Lolium multiflorum, post-emergence, 240 h, 0 to 100 scale (0 no effect, 100 complete control), read-out: Plant response rating, Ryegrass, Italian; for pest or weed control at 31 g/ha: 31 g ai/ha; for pest or weed control at 125 g/ha: 125 g ai/ha
[12] = system: pigweed (Amaranthus retroflexus); experiment: Test A preemergence, pigweed; format: in vivo; details: Amaranthus retroflexus, pre-emergence, 240 h, 0 to 100 scale (0 no effect, 100 complete control), read-out: Plant response rating, Pigweed; for pest or weed control at 31 g/ha: 31 g ai/ha; for pest or weed control at 125 g/ha: 125 g ai/ha
[13] = system: barnyardgrass (Echinochloa crus-galli); experiment: Test A postemergence, barnyardgrass; format: in vivo; details: Echinochloa crus-galli, post-emergence, 240 h, 0 to 100 scale (0 no effect, 100 complete control), read-out: Plant response rating, Barnyardgrass; for pest or weed control at 31 g/ha: 31 g ai/ha; for pest or weed control at 125 g/ha: 125 g ai/ha
[14] = system: barnyardgrass (Echinochloa crus-galli); experiment: Test A preemergence, barnyardgrass; format: in vivo; details: Echinochloa crus-galli, pre-emergence, 240 h, 0 to 100 scale (0 no effect, 100 complete control), read-out: Plant response rating, Barnyardgrass; for pest or weed control at 31 g/ha: 31 g ai/ha; for pest or weed control at 125 g/ha: 125 g ai/ha
corn (Zea mays) = experiment: Test A postemergence, corn; format: in vivo; details: Zea mays, post-emergence, 240 h, 0 to 100 scale (0 no effect, 100 complete control); for Corn plant response rating (crop injury, 0 = no effect, 100 = complete kill) at 31 g/ha: 31 g ai/ha; for Corn plant response rating (crop injury, 0 = no effect, 100 = complete kill) at 125 g/ha: 125 g ai/ha
[15] = system: pigweed (Amaranthus retroflexus); experiment: Test A postemergence, pigweed; format: in vivo; details: Amaranthus retroflexus, post-emergence, 240 h, 0 to 100 scale (0 no effect, 100 complete control), read-out: Plant response rating, Pigweed; for pest or weed control at 31 g/ha: 31 g ai/ha; for pest or weed control at 125 g/ha: 125 g ai/ha

Structure (SMILES) | pest or weed control at 31 g/ha [1] | pest or weed control at 125 g/ha [1] | pest or weed control at 31 g/ha (kochia (Kochia scoparia) [2]) | pest or weed control at 125 g/ha (kochia (Kochia scoparia) [2]) | pest or weed control at 250 g/ha [3] | plant injury at 250 g/ha (rice (Oryza sativa)) | pest or weed control at 31 g/ha (kochia (Kochia scoparia) [4]) | pest or weed control at 125 g/ha (kochia (Kochia scoparia) [4]) | pest or weed control at 250 g/ha [5] | pest or weed control at 31 g/ha [6] | pest or weed control at 125 g/ha [6] | plant injury at 31 g/ha [7] | plant injury at 125 g/ha [7] | pest or weed control at 31 g/ha [8] | pest or weed control at 125 g/ha [8] | pest or weed control at 125 g/ha [9] | pest or weed control at 31 g/ha [10] | pest or weed control at 125 g/ha [10] | pest or weed control at 31 g/ha [11] | pest or weed control at 125 g/ha [11] | other results
O=C1c2cccc(Oc3ncc(Cl)cn3)c2C1CCC(F)(F)F (stereo not shown) [Compound 24, 2-[(5-Chloro-2-pyrimidinyl)oxy]-8-(3,3,3-trifluoropropyl)bicyclo[4.2.0]octa-1,3,5-trien-7-one] | 0% | 20% | 20% | 60% | 25% | 0% | 20% | 50% | 90% | 20% | 80% | 0% | 0% | 0% | 10% | 0% | 30% | 80% | 0% | 20% | pest or weed control at 31 g/ha [12]: 0%; pest or weed control at 125 g/ha [12]: 30%; pest or weed control at 31 g/ha [13]: 20%; pest or weed control at 125 g/ha [13]: 70%; pest or weed control at 31 g/ha [14]: 0%; pest or weed control at 125 g/ha [14]: 50%; Corn plant response rating (crop injury, 0 = no effect, 100 = complete kill) at 31 g/ha (corn (Zea mays)): 10%; Corn plant response rating (crop injury, 0 = no effect, 100 = complete kill) at 125 g/ha (corn (Zea mays)): 20%; pest or weed control at 31 g/ha [15]: 20%; pest or weed control at 125 g/ha [15]: 70%
O=C1OCC(CCC(F)(F)F)c2c(Oc3ncc(Cl)cn3)cccc21 (stereo not shown) [Compound 25, 5-[(5-Chloro-2-pyrimidinyl)oxy]-3,4-dihydro-4-(3,3,3-trifluoropropyl)-1H-2-benzopyran-1-one] | 0% | 30% | 0% | 70% | 0% | 0% | 30% | 60% | 0% | 30% | 40% | 0% | 10% | 0% | 0% | 0% | 20% | 60% | 0% | 0% | pest or weed control at 31 g/ha ([9]; 31 g ai/ha): 0%; pest or weed control at 31 g/ha [12]: 10%; pest or weed control at 125 g/ha [12]: 100%; pest or weed control at 31 g/ha [13]: 0%; pest or weed control at 125 g/ha [13]: 10%; pest or weed control at 31 g/ha [14]: 0%; pest or weed control at 125 g/ha [14]: 30%; Corn plant response rating (crop injury, 0 = no effect, 100 = complete kill) at 31 g/ha (corn (Zea mays)): 20%; Corn plant response rating (crop injury, 0 = no effect, 100 = complete kill) at 125 g/ha (corn (Zea mays)): 20%; pest or weed control at 31 g/ha [15]: 30%; pest or weed control at 125 g/ha [15]: 50%

From US11427549B2, “Pyrimidinyloxy benzo-fused compounds as herbicides” (FMC Corporation, priority 2017, dated 2022)
